ChEMBL document CHEMBL1157539, “Thousands of chemical starting points for antimalarial lead identification” (Nature, 2010)

tested on: Plasmodium falciparum; experiment: GSK_TCMDC: Inhibition of Plasmodium falciparum 3D7 in whole erythrocytes, using parasite LDH activity as an index of growth.; format: functional, organism-based; conditions: Plasmodium falciparum, 3D7

Structure (SMILES) | XC50
COc1c(I)cc(Cc2cnc(N)nc2N)cc1I | 930 nM
CN(Cc1ccc(-c2ccc(C(F)(F)F)cc2)cc1)C(=O)Cn1c(CCc2cccc(F)c2F)cc(=O)c2ccc(OCCCN3CCCCC3)cc21 | 706 nM
O=C(/C=C/c1ccc(Cl)c(Cl)c1)NCCCCCCN1CCN(C(=O)Nc2ccc(Cl)c(Cl)c2)CC1 | 931 nM
COc1cccc(C2CCN(CCN3CCC(NC(=O)c4ccc(-c5ccc(Cl)cc5)cc4)CC3)CC2)c1 | 1090 nM
Cc1nc(-c2ccccc2)nc(N2CCN(C(=O)c3ccco3)CC2)c1Cc1ccccc1F | 927 nM
Cc1cc(NC(=O)CCCN2CCN(c3cccc(Cl)c3Cl)CC2)ccc1N1CCN(C(C)C)CC1 | 757 nM
N#Cc1ccc(-c2ccc(C(=O)Nc3ccc4c(c3)CCN(C3CCC3)CC4)nc2)cc1 | 696 nM
O=C(NCc1cccc(C(F)(F)F)c1)C(c1cc2ccccc2o1)N1CCN(C(c2ccccc2)c2ccccc2)CC1 (stereo not drawn) | 498 nM
CC(C)CN1CCN(c2nc(C#N)c3c(c2C(=S)NC2CCCCC2)CC(C)(C)OC3)CC1 | 296 nM
Cc1ccc(NC(=O)Cc2noc(CC3CCCN3C(=O)N[C@@H](C)c3ccccc3)n2)cc1 (stereo partly drawn) | 369 nM
CCC(C)NC(=O)CN1CN(c2ccccc2)C2(CCN(C(=O)c3ccc(-c4ccccc4)cc3)CC2)C1=O (stereo not drawn) | 128 nM
O=C(Nc1cccc(-c2cccc(-c3nc4ccccc4[nH]3)c2)c1)Nc1ccc2c(c1)OCO2 | 167 nM
Clc1ccc(C=NN=c2cc[nH]c3ccccc23)cc1 | 723 nM
COc1cc(C(=O)NC2CCN(Cc3ccccc3)CC2)ccc1-c1nc2cc(Cl)c(Cl)cc2[nH]1 | 521 nM
O=[N+]([O-])c1ccc(Oc2c(Cl)cc(S(=O)(=O)N3CCC(CN4CCC(c5c[nH]c6ccccc56)CC4)CC3)cc2Cl)c(Cl)c1 | 998 nM
O=C(NC1CCN(Cc2ccccc2)CC1)c1cccc(-c2cc3cc(Cl)c(Cl)cc3[nH]2)c1 | 725 nM
CCOc1cc(C(=O)NCCc2ccc(Cl)c(Cl)c2)ccc1-c1nc2cc(Cl)ccc2[nH]1 | 895 nM
COc1ccc2[nH]cc(C3CCN(CCCCNC(=O)c4ccc(NC(=O)c5ccc(Cl)cc5)cc4)CC3)c2c1 | 1020 nM
O=C(NCCCCN1CCC(c2ccc3c(c2OCC(O)c2ccc(Cl)cc2)CCCC3)CC1)c1ccc(-c2ccc(C(F)(F)F)cc2)cc1 (stereo not drawn) | 1040 nM
Cn1nccc1C(=O)NCCNCc1cccc(-c2ccc(-c3nc4cc(C(F)(F)F)ccc4[nH]3)s2)c1 | 151 nM
CCOc1ccc2c(=NN=Cc3c4ccccc4cc4ccccc34)cc(C)[nH]c2c1 | 1070 nM
COc1ccccc1-c1cccc(-c2cccc(NC(=O)c3ccc([N+](=O)[O-])o3)c2)n1 | 603 nM
CCCc1ccc(NC(=O)c2cccc(CN3CCCN(Cc4cccc(O)c4)CC3)c2)cc1 | 748 nM
CC(C)C1C(O)=C(c2ccc3ccccc3c2)C(=O)N1Cc1ccsc1 (stereo not drawn) | 1070 nM

Structure (SMILES) | XC50
CCc1cc2c(=O)c(-c3nc(C)cs3)c([C@H](N)Cc3ccc(O)cc3)oc2cc1O | 902 nM
CC[C@H]1CN2CC[C@H]1C[C@H]2[C@H](O)c1cc(-c2ccc3ccccc3c2)nc2ccc(OC)cc12 | 104 nM
CN(c1cc(NC(=O)c2cccs2)ccn1)C1CCN(Cc2ccccc2)CC1 | 1020 nM
COc1cc(C=C(C2=NC(=O)CS2)c2nc3cccnc3n2C)ccc1O | 1000 nM
C=Cc1cc(NC(=O)N2CCc3cc(OC)c(C(F)(F)F)cc32)cc(-c2cccnc2)c1 | 702 nM
CN1CCCC1CNS(=O)(=O)c1ccc(C(=O)NCC2CC2)cc1 (stereo not drawn) | 174 nM
CC(C)COc1ccc(Cl)cc1Cc1ccc(-c2nc3ccc(C(F)(F)F)cc3[nH]2)o1 | 847 nM
Cc1cc(F)ccc1-c1nc(Nc2ccncc2)c2ccn(C)c2n1 | 940 nM
CCC(C)NCc1c(O)ccc2c(CNC(C)CC)c(O)ccc12 (stereo not drawn) | 592 nM
COc1ccc(Nc2ncc(Cl)c(Nc3cccnc3C(N)=O)n2)cc1N1CCN(C)CC1 | 225 nM
CS(=O)(=O)c1ccc2c(c1)CCN(CCC1CCC(NC(=O)C(=Cc3ccc(Cl)cc3Cl)c3ccc(-c4ccccc4)cc3)CC1)CC2 (stereo not drawn) | 1170 nM
COc1cc2c(cc1OC)C(C)(C)CN1Cc3c(c(CO)c(OC)c(OC)c3OC)CC21 (stereo not drawn) | 782 nM
CCN(C)CCCn1c(N(C)C)nc2cc(-n3cnc4cc(-c5ccc(Cl)cc5)sc4c3=O)ccc21 | 1090 nM
CN1CCC(N2CCN(Cc3ccc(-c4ccc(-c5nc6cc(F)ccc6[nH]5)s4)cc3)CC2)CC1 | 153 nM
O=C(/C=C/c1ccc(Cl)c(Cl)c1)NCCCCCN1CCCC(CNC(=O)Nc2ccc(Oc3ccccc3)cc2)C1 (stereo not drawn) | 783 nM
N#CC(c1cccc(Cl)c1)c1ccc2c(C(F)(F)F)cc(C(F)(F)F)nc2n1 (stereo not drawn) | 727 nM
CCn1c(SCc2ccc(F)cc2)nc2sc3c(c2c1=O)CCN(C)C3 | 254 nM
COc1cccc(CNC[C@@H](O)[C@H](Cc2ccccc2)NC(=O)c2cc(C(C)C)cc(N3CCCC3=O)c2)c1 | 953 nM
CC[C@H]1CN2CC[C@H]1C[C@H]2[C@H](OC(=O)c1ccccc1)c1cc(C#N)nc2ccc(OC)cc12 | 915 nM
NC(=O)C1CCN(Cc2ccc(-c3ccc(-c4nc5cc(C(F)(F)F)ccc5[nH]4)s3)cc2)CC1 | 540 nM
CNCCNCc1cccc(-c2ccc(-c3nc4cccc(C)c4[nH]3)s2)c1 | 953 nM
Cc1cc(C(=O)Nc2ccc3c(c2)CCN3C2CCN(Cc3ccc4nsnc4c3)C2)no1 (stereo not drawn) | 641 nM
O=C(Nc1cccc(-c2cccc(F)c2)c1)C1CCN(Cc2ccc(O)cc2)CC1 | 1730 nM
O=C(/C=C/c1ccc(Cl)c(Cl)c1)NCCCCCN1CCC(NC(=S)Nc2cccc(Cl)c2)CC1 | 873 nM

Structure (SMILES) | XC50
O=C(Nc1ccc(Br)cc1)Nc1ccc(Cn2ncc(N3CCCNCC3)c(Cl)c2=O)cc1 | 1140 nM
O=C(/C=C/c1cc(C(F)(F)F)ccc1F)NC1CCC(CN2CCC(c3c[nH]c4ccccc34)CC2)CC1 (stereo not drawn) | 818 nM
O=C(C=Cc1ccc(Cl)c(Cl)c1)NCCCCCN1CCCC(CCCNC(=O)c2ccc3c(c2)OCO3)C1 (stereo not drawn) | 1220 nM
Cc1cccc(NC(=S)NC2CCN(CCCCCNC(=O)/C=C/c3ccc(Cl)c(Cl)c3)CC2)c1 | 948 nM
CN1CCN(c2ccc3[nH]c(-c4ccc(Cc5cc(Cl)ccc5OCc5ccccc5)o4)nc3c2)CC1 | 807 nM
CCCC(C)Nc1nc(C)cc(N[C@@H](Cc2ccccc2)C(=O)Nc2ccc(OC)cc2)n1 (stereo partly drawn) | 1120 nM
COc1ccc2nccc([C@@H](O)CN3CCC(NC(=O)/C=C/c4ccc(F)c5ccccc45)CC3)c2c1 | 184 nM
CC[C@H]1CN2CC[C@@H]1C[C@H]2[C@H](O)c1cc(N2CCC(O)(c3ccc(Cl)cc3)CC2)nc2ccc(OC)cc12 | 71 nM
COc1ccc(CC(C)CON2C(N)=NC(N)=NC2(C)C)cc1 (stereo not drawn) | 3.2 nM
Fc1ccc(-c2cncc(Nc3ccncc3)n2)cc1 | 1320 nM
COc1cccc(-c2ccc(NC(=O)C3CCCN(Cc4cccc(OC)c4O)C3)cc2)c1 (stereo not drawn) | 847 nM
c1cc(CNC2CCN(CC3CCCCC3)CC2)cc(-n2ccnc2)c1 | 650 nM
CC(C)(C)c1ccc(CNC(=O)/C=C/c2ccc(CNC3CCNCC3)cc2)cc1 | 1090 nM
COCCNCc1ccc(-c2cccc(CNC3CCN(Cc4ccccc4)CC3)c2)cc1 | 333 nM
Cc1cccc2nc(-c3ccc(-c4cccc(NC(=O)Nc5ccsc5)c4)cc3)[nH]c12 | 799 nM
Oc1ccc(Cc2ccccc2)cc1CNC1CCCCC1 | 188 nM
COc1cc(C)c(NC(=O)c2cccc3c(=O)c(C)c(-c4ccccc4)oc23)cc1OC | 1630 nM
CC(C)c1ccc(NC(=O)c2ccc(CN3CCCN(Cc4cccc(O)c4)CC3)cc2)cc1 | 679 nM
COc1cccc(C(=O)Nc2ccc(S(=O)(=O)c3cc4c(cc3OC)CCN(C)CC4)cc2)c1 | 1100 nM
COCCNCc1cccc(-c2ccc3nccc(Nc4cc(O)ccc4C)c3c2)c1 | 749 nM
O=C1OC(c2ccccc2)(c2ccccc2)CN1CC1CCN(Cc2ccc(O)c(Cl)c2)CC1 | 818 nM
O=S(=O)(NCCN1CCCC1)c1cccc(-c2cccc(CNCc3ccsc3)c2)c1 | 872 nM
CC1(C)N=C(N)N=C(N)N1O | 192 nM
CCN(CC)/C(=N/C(=N)Nc1ccc(C)cc1)NCCCCCCN/C(=N\C(=N)Nc1ccc(C)cc1)N(CC)CC | 539 nM

Structure (SMILES) | XC50
Cc1cc2nc(-c3ccc(C(=O)NCc4ccc(Cl)c(Cl)c4)cc3)[nH]c2cc1C | 828 nM
O=C(N1CCN(c2cccc(C(F)(F)F)c2)CC1)C(Cl)(Cl)Cl | 887 nM
Cc1cc2c(cc1C(F)(F)F)N(C(=O)Nc1ccc(C(=O)NC3CCN(Cc4ccccc4)C3)cc1)CC2 (stereo not drawn) | 776 nM
COc1cc2nc(N(C)Cc3cc4c(Cl)cccc4s3)nc(N)c2cc1OC | 953 nM
Fc1ccc2[nH]c(-c3ccc(-c4ccc(CNCCc5ccncc5)cc4)cc3)nc2c1 | 142 nM
COCC(=O)Nc1nc2ccccc2[nH]1 | 301 nM
COc1cc(CNC[C@@H](O)[C@H](Cc2ccccc2)NC(=O)c2cc(C3CCCC3)cc(N3CCCCS3(=O)=O)c2)cc(OC)c1 | 704 nM
O=C(Nc1cccc(-c2ccc(-c3nc4ccccc4[nH]3)cc2)c1)c1csnn1 | 1070 nM
COc1ccc(CNCc2ccc(F)cc2)cc1-c1ccc(OC)c(S(=O)(=O)NCCN2CCCC2)c1 | 786 nM
c1cc(CNCCc2ccncc2)cc(-c2ccc(-c3nc4ccccc4[nH]3)s2)c1 | 336 nM
CC(C)(C)c1ccc(OC(=O)c2ccc(NC(=O)N[C@@H](Cc3ccc(O)cc3)C(=O)NC3CCN(Cc4ccc(O)cc4)C3)cc2)cc1 (stereo partly drawn) | 814 nM
CN(C)CCCn1c(C(=O)OC(c2ccccc2)c2ccccc2)cc2cc(OCc3ccccc3)ccc21 | 201 nM
Cc1ccc(CN2CCCN(Cc3cccc(NC(=O)c4ccc(Cl)c(Cl)c4)c3)CC2)cc1 | 902 nM
O=C(Nc1cccc(-c2cccc(-c3nc4cc(C(F)(F)F)ccc4[nH]3)c2)c1)c1ccncc1 | 201 nM
Cc1[nH]c(C)c(-c2ccc(OCCCc3ccccn3)cc2)c(=O)c1Br | 212 nM
Cc1cn(CC(=O)Nc2cccc(-c3cccc(-c4nc5cc(C(F)(F)F)ccc5[nH]4)c3)c2)c(=O)[nH]c1=O | 681 nM
O=C(Nc1cc(F)cc(F)c1)N[C@H]1CCN(CCCCCNC(=O)C2CC2c2ccc(Cl)c(Cl)c2)C1 (stereo partly drawn) | 1080 nM
O=C(Nc1ccc(Cl)cc1Cl)NC1CCN(CCCCCNC(=O)C2CC2c2ccc(Cl)c(Cl)c2)CC1 (stereo not drawn) | 367 nM
CC(=O)Nc1ccc(CN(C)C2CCN(c3cc(NC(=O)c4cccc(C)c4)ccn3)CC2)cc1 | 904 nM
Cc1cccc(Nc2nccc(NCC(O)c3ccc(C(F)(F)F)cc3)n2)c1 (stereo not drawn) | 555 nM
O=C(NCCCCCN1CCC(c2c[nH]c3ccccc23)CC1)Nc1ccc(Cl)cc1Cl | 716 nM
